The target in the experiment is T1, TNKS2 (Homo sapiens, UniProt Q9H2K2).
T1 sequence (Q9H2K2 1-1166): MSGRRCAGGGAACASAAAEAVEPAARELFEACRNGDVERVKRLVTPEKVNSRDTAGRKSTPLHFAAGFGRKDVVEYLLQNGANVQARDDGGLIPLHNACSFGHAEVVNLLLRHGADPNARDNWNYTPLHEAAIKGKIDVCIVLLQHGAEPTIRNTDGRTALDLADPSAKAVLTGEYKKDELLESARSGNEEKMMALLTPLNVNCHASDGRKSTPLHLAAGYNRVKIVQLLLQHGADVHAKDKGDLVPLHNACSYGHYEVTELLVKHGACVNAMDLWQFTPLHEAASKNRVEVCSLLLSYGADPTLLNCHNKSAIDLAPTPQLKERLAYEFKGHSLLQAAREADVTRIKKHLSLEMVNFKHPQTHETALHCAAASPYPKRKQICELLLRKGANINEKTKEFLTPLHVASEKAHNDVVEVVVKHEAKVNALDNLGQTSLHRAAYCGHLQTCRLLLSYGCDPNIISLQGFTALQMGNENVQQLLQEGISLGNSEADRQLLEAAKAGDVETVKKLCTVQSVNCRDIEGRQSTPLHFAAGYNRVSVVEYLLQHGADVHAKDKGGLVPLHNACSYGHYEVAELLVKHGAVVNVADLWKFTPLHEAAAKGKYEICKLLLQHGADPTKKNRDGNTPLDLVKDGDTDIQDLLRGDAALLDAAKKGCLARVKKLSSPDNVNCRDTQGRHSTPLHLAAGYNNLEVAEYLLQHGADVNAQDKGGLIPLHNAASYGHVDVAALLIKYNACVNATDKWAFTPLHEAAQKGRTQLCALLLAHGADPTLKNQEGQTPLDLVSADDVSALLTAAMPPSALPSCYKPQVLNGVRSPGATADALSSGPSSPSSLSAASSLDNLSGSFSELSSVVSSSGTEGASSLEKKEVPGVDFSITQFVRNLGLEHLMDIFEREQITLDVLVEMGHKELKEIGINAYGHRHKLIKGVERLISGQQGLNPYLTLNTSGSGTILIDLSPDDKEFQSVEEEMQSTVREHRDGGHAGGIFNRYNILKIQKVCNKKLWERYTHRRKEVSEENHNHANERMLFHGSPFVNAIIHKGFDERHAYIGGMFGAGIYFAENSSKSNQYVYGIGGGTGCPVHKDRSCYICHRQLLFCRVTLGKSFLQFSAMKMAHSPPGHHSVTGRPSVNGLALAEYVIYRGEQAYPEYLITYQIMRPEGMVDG
The experiment in a line: Modified TNKS2 Assay 3 (BPS kit #80578, biotin-NAD+, 96 well). The format is biochemical. The following applies: human TNKS2, BPS kit #80578, 96 well. How it is done: The potency of the compounds against human TNKS2 according to the invention was assessed using a commercially available biotin/streptavidin binding assay kits from BPS Bioscience, San Diego, USA (Catalog #80578 for TNKS2). The incorporation of a biotin-labeled NAD+ during the […] catalyzed ribosylation of a suitable protein substrate was detected using with a streptavidin-HRP coupled chemi-luminescent readout. The intensity of the readout signal is proportional to the incorporated NAD^+. Inhibition of TNKS2 leads to a decreased incorporation of NAD^+ and consequently to a lower readout signal intensity in the corresponding TNKS2 assays. The concentration of a test compound that inhibits the enzyme activity by 50% (corresponds to half of the normed readout signal intensity) is reported as IC50. The assay conducted in a 96 well MTP format according to the manufacturer's protocol and using a BMG Pherastar MTP reader [BMG-Labtech, Offenburg, Germany].

This note sets out measurements from US9884063B2, “Amido-substituted azole compounds” (Bayer Pharma Aktiengesellschaft, priority 2014, dated 2018).

By IC50 is commonly meant the concentration that inhibits the measured activity by half. A low value points to greater potency in that assay.

`CC1CCN(CCNC(=O)c2nc[nH]c2C(=O)Nc2ccc(NC(=O)c3ccc(F)cc3Cl)cc2)CC1` [Example 126, N^5-{4-[(2-chloro-4-fluorobenzoyl)amino]phenyl}-N^4-[2-(4-methylpiperidin-1-yl)ethyl]-1H-imidazole-4,5-dicarboxamide] had an IC50 of 1 nM. Take `O=C(Nc1ccc(NC(=O)c2nc[nH]c2C(=O)NCCN2CCCC(F)C2)cc1)c1ccc(F)cc1Cl` (centres unmarked) [Example 226, N^4-{4-[(2-chloro-4-fluorobenzoyl)amino]phenyl}-N^5-[2-(3-fluoropiperidin-1-yl)ethyl]-1H-imidazole-4,5-dicarboxamide]: the IC50 was determined as 0.9 nM. With `O=C(Nc1ccc(NC(=O)c2nc[nH]c2C(=O)NC2CCOC2)cc1)c1ccc(F)cc1Cl` (centres unmarked) [Example 236, N^4-{4-[(2-chloro-4-fluorobenzoyl)amino]phenyl}-N^5-(tetrahydrofuran-3-yl)-1H-imidazole-4,5-dicarboxamide] the figure was 80 nM; with `O=C(NCCN1CCCCC1)c1nc[nH]c1C(=O)Nc1ccc(NC(=O)c2c(F)cc(F)cc2Cl)cc1` [Example 119, N^5-{4-[(2-chloro-4,6-difluorobenzoyl)amino]phenyl}-N^4-[2-(piperidin-1-yl)ethyl]-1H-imidazole-4,5-dicarboxamide], below 0.5 nM. With `O=C(Nc1ccc(NC(=O)c2[nH]cnc2C(=O)NCC(F)(F)F)cc1)c1ccc(F)cc1Cl` [Example 30, N^4-{4-[(2-chloro-4-fluorobenzoyl)amino]phenyl}-N^5-(2,2,2-trifluoroethyl)-1H-imidazole-4,5-dicarboxamide] the figure was 130 nM; with `CNC(=O)c1nc[nH]c1C(=O)Nc1ccc(NC(=O)c2ccc(F)cc2Cl)nc1` [Example 16, N^5-{6-[(2-chloro-4-fluorobenzoyl)amino]pyridin-3-yl}-N^4-methyl-1H-imidazole-4,5-dicarboxamide], 40 nM. Next, `NC(=O)c1nc[nH]c1C(=O)Nc1ccc(NC(=O)c2ccc(F)cc2Cl)cc1` [Example 121]: 110 nM; `COCCNC(=O)c1[nH]cnc1C(=O)Nc1ccc(NC(=O)c2ccc(F)cc2Cl)cc1` [Example 130, N^4-{4-[(2-chloro-4-fluorobenzoyl)amino]phenyl}-N^5-(2-methoxyethyl)-1H-imidazole-4,5-dicarboxamide]: 170 nM; `CNC(=O)c1nc[nH]c1C(=O)Nc1ccc(NC(=O)c2ccc(F)cc2Cl)cc1` [Example 12, N^5-{4-[(2-chloro-4-fluorobenzoyl)amino]phenyl}-N^4-methyl-1H-imidazole-4,5-dicarboxamide]: 60 nM. In turn, `CNC(=O)c1nc[nH]c1C(=O)Nc1ccc(NC(=O)c2cc(OC)c(OC)cc2Cl)cc1` [Example 240, N^5-{4-[(2-chloro-4,5-dimethoxybenzoyl)amino]phenyl}-N^4-methyl-1H-imidazole-4,5-dicarboxamide] came in with an IC50 of 30 nM. `CNC(=O)c1nc[nH]c1C(=O)Nc1ccc(NC(=O)c2cc(F)c(F)cc2Cl)cc1` [Example 242, N^5-{4-[(2-chloro-4,5-difluorobenzoyl)amino]phenyl}-N^4-methyl-1H-imidazole-4,5-dicarboxamide] returned a concentration for half-maximal inhibition (IC50) of 120 nM. Next, `CNC(=O)c1nc[nH]c1C(=O)Nc1ccc(NC(=O)c2ccc(C)cc2Cl)cc1` [Example 244, N^5-{4-[(2-chloro-4-methylbenzoyl)amino]phenyl}-N^4-methyl-1H-imidazole-4,5-dicarboxamide]: 30 nM; `CNC(=O)c1nc[nH]c1C(=O)Nc1ccc(NC(=O)c2c(F)cc(F)cc2Cl)cc1` [Example 118, N^5-{4-[(2-chloro-4,6-difluorobenzoyl)amino]phenyl}-N^4-methyl-1H-imidazole-4,5-dicarboxamide]: 230 nM. With `CC1CCCN(CCNC(=O)c2[nH]cnc2C(=O)Nc2ccc(NC(=O)c3ccc(F)cc3Cl)cc2)C1` (centres unmarked) [Example 208, N^4-{4-[(2-chloro-4-fluorobenzoyl)amino]phenyl}-N^5-[2-(3-methylpiperidin-1-yl)ethyl]-1H-imidazole-4,5-dicarboxamide] the figure was 3 nM.
